Test results as given in patent publication US7267964B2, “DNA molecules encoding ligand gated ion channels from Dermacentor variabilis” (priority 2000, dated 2007).

Assays:
Assay type in all cases: cell-based, Dermacentor variabilis
DvLGIC/GluCl 10-2 = DvLGIC/GluCl 10-2 expressed in Xenopus oocytes, current response; conditions: concentration not given
Source text: (§1) Synthesis of in vitro transcribed capped RNA—A PCR strategy was used to add the T7 promoter upstream of the initiating methionine (ATG) and a polyA^+ tail following the stop codon (TAG) of the open reading frame (ORF) of clones DvLGIC/GluCl1, DvLGIC/GluCl 11, DvLGIC/GluCl 7-1 and DvLGIC/GluCl 10-2. Amplified ORFs which contained the flanking T7 promoter and polyA^+ tail were used directly as templates in the in vitro transcription reaction (mMessage mMachine™, Ambion, Austin, Tex.). After removal of DNA template, the volume was adjusted to 100 μl with nuclease free water, and RNA purified using a G-50 Sephadex Column (Boehringer Mannheim, Indianapolis, Ind.). The elutate was extracted with an equal volume of phenol/chloroform, followed with a second chloroform extraction, precipitated with isopropyl alcohol, and resuspended in nuclease-free water to a storage concentration of 1 μg/μl.
(§2) Xenopus laevis oocytes were prepared and injected using standard methods previously described [Arena, J. P., Liu, K. K., Paress, P. S. & Cully, D. F. Mol. Pharmacol. 40, 368-374 (1991); Arena, J. P., Liu, K. K., Paress, P. S., Schaeffer, J. M. & Cully, D. F., Mol. Brain Res. 15, 339-348 (1992)]. […]

DvLGIC/GluCl 1 = experiment: Two-microelectrode voltage clamp of Xenopus oocytes injected with DvLGIC/GluCl 1 RNA
Source text: as §1
(§3) Xenopus laevis oocytes were prepared and injected using standard methods previously described [Arena, J. P., Liu, K. K., Paress, P. S. & Cully, D. F. Mol. Pharmacol. 40, 368-374 (1991); Arena, J. P., Liu, K. K., Paress, P. S., Schaeffer, J. M. & Cully, D. F., Mol. Brain Res. 15, 339-348 (1992)]. Adult female Xenopus laevis were anesthetized with 0.17% tricaine methanesulfonate and the ovaries were surgically removed and placed in a solution consisting of (mM): NaCl 82.5, KCl 2, MgCl2 1, HEPES 5, NaPyruvate 2.5, Penicillin G. 100,000 units/L, Streptomycin Sulfate 1000 mg/L, pH 7.5 (Mod. OR-2). Ovarian lobes were broken open, rinsed several times in Mod. OR-2, and incubated in 0.2% collagenase (Sigma, Type1) in Mod. OR-2 at room temperature with gentle shaking. After 1 hour the collagenase solution was renewed and the oocytes were incubated for an additional 30-90 min until approximately 50% of the oocytes were released from the ovaries. Stage V and VI oocytes were selected and placed in media containing (mM): NaCl 96, KCl 2, MgCl2 1, CaCl2 1.8, HEPES 5, NaPyruvate 2.5, theophylline 0.5, gentamicin […], pH 7.5 (ND-96) for 16-24 hours before injection. Oocytes were injected with 50 nl of DvLGIC/GluCl1 or DvLGIC/GluCl 7-1 RNA at a concentration of 0.2 mg/ml. Oocytes were incubated at 18° C. for 1-6 days in ND-96 before recording.
(§4) Recordings were made at room temperature in modified ND-96 consisting of (mM): NaCl 96, MgCl2 1, CaCl2 0.1, BaCl2 3.5, HEPES 5, pH 7.5. Oocytes were voltage clamped using a Dagan CA1 two microelectrode amplifier (Dagan Corporation, Minneapolis, Minn.) interfaced to a Macintosh 7100/80 computer. The current passing electrode was filled with 0.7 M KCl, 1.7 M KCitrate, and the voltage recording electrode was filled with 1 M KCl. Throughout the experiment oocytes were superfused with modified ND-96 (control solution) or with ND-96 containing potential channel activators and blockers at a rate of approximately 3 ml/min. Data were acquired at 100 Hz and filtered at 33.3 Hz using Pulse software from HEKA Elektronik (Lambrecht, Germany). All recordings were performed from a holding potential of either 0 or −30 mV.

DvLGIC/GluCl 7-1 = experiment: Two-microelectrode voltage clamp of Xenopus oocytes injected with DvLGIC/GluCl 7-1 RNA
Source text: as §1, §3, §4

DvLGIC/GluCl 11 = DvLGIC/GluCl 11 expressed in Xenopus oocytes, current response; conditions: concentration not given
Chain of DvLGIC/GluCl 11 (as listed by the source): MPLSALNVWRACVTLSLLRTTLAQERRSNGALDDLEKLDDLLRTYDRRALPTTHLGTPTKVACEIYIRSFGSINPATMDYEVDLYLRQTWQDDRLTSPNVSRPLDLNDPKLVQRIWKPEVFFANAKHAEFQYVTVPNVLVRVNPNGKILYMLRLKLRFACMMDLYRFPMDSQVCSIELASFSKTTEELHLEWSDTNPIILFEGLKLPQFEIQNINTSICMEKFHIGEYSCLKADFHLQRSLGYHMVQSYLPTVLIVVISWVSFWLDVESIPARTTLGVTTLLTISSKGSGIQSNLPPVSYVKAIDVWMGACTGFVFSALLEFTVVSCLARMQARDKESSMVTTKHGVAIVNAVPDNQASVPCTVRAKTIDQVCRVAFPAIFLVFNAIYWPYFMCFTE
Source text: as §1, §2

[1] = 1 μM ivermectin phosphate, holding potential 0 or −30 mV
[2] = Xenopus oocytes, concentration not given
[3] = after 1 μM ivermectin phosphate

N[C@@H](CCC(=O)O)C(=O)O [glutamate]
responsiveness of the channel to the substance (DvLGIC/GluCl 10-2): not responsive
current in response to application (DvLGIC/GluCl 1; 1 mM glutamate): did not activate a current
current in response to application (DvLGIC/GluCl 7-1; 1 mM glutamate): did not activate a current

ivermectin phosphate
responsiveness of the channel to the substance (DvLGIC/GluCl 10-2): not responsive
current in response to application (DvLGIC/GluCl 1; [1]): slowly activating current
concentration at which current activation was maximal (DvLGIC/GluCl 1; Xenopus oocytes injected with DvLGIC/GluCl 1 mRNA, FIG. 9): 1 µM
current in response to addition (DvLGIC/GluCl 1; [2]): exhibit a current
reversibility of current upon wash-out (DvLGIC/GluCl 1; [3]): irreversible
current in response to application (DvLGIC/GluCl 7-1; [1]): slowly activating current
concentration at which current activation was maximal (DvLGIC/GluCl 7-1; DvLGIC/GluCl 7-1 expressed in Xenopus oocytes, FIG. 10): ~1 µM
current in response to addition (DvLGIC/GluCl 7-1; [2]): exhibit a current
reversibility of current upon wash-out (DvLGIC/GluCl 7-1; [3]): irreversible
current in response to addition (DvLGIC/GluCl 11): exhibit a current
